# Assay results from paper PMC5002989 (Bioorganic & medicinal chemistry letters, 2016).
# Read-outs that look alike come from different tables or passages of the source.
# Experiments:
# [1] = Experimental water solubility, thermodynamic solubility method; format: physicochemical; conditions: for solubility: water, Experimentally determined water solubility of the hydrochloride salt
# hERG channel = hERG channel (Homo sapiens, UniProt Q12809); experiment: biochemical
# VMAT2 = VMAT2 (Rattus norvegicus, UniProt Q01827); experiment: [3H]DA uptake at VMAT2 in rat striatal vesicle preparations; format: biochemical
# VMAT2, sequence (Q01827 whole entry): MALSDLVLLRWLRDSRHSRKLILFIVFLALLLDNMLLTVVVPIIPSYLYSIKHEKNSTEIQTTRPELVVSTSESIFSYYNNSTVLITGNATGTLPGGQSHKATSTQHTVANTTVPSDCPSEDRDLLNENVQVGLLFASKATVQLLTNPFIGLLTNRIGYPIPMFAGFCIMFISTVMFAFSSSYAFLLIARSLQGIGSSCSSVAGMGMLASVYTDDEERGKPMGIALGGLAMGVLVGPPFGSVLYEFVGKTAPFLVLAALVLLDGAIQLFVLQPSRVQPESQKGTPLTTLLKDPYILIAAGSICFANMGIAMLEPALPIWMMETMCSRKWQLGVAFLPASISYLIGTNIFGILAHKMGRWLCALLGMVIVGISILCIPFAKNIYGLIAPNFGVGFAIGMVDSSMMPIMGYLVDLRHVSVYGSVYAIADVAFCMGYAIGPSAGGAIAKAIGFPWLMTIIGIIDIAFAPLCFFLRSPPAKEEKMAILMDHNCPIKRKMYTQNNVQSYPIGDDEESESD
# hERG channel, sequence (Q12809 whole entry): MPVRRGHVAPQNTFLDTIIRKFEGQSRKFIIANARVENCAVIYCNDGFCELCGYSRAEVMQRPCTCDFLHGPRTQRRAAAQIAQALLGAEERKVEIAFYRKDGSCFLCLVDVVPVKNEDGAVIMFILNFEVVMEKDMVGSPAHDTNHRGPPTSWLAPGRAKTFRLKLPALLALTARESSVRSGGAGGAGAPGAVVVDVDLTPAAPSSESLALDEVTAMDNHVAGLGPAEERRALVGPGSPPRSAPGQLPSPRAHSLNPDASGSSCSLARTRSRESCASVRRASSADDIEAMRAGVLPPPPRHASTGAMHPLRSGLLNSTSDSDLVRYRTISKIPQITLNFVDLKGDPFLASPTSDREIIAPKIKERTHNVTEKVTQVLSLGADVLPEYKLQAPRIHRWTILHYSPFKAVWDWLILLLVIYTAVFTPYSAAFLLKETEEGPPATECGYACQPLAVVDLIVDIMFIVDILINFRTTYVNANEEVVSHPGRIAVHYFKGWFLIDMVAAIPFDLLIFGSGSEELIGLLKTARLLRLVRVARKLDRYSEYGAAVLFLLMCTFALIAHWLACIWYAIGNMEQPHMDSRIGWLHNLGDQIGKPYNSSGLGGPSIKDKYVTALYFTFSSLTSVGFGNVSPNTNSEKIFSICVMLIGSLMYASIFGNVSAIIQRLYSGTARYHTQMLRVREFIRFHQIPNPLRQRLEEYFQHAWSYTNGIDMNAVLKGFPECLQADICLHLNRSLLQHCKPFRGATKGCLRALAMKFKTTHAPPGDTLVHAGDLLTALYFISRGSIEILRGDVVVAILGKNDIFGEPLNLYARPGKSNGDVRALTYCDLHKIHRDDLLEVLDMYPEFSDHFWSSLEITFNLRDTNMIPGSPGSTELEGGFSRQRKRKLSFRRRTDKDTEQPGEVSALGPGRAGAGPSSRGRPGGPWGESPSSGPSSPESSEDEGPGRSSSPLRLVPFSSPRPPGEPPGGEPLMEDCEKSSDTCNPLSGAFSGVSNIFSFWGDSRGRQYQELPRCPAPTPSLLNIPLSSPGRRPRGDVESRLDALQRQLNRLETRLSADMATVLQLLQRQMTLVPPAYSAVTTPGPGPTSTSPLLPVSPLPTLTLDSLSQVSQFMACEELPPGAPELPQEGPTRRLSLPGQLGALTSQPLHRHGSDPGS
compound,measurement,setting,value
COc1ccccc1CCN1CCN(CCc2ccccc2)CC1.Cl.Cl [Compound 9a],Experimentally determined water solubility of the hydrochloride salt,[1],13.5 mg/mL
same,Experimentally determined water solubility of the hydrochloride salt,[1]; listed as C00004,33.3 mg/mL
"CN1[C@@H](CCc2ccccc2)CCC[C@H]1CCc1ccccc1 [Lobelane (2), lobelane]",Ki,hERG channel,238 ± 38.9 nM
Cl.Cl.Fc1ccc(CCN2CCN(CCc3ccc(F)cc3)CC2)cc1 [Compound 6f],[3H]DA uptake Ki in comparison to lobelane,VMAT2,not different from lobelane
COc1ccccc1CCN1CCN(CCc2ccccc2OC)CC1.Cl.Cl [Compound 6b],Experimentally determined water solubility of the hydrochloride salt,[1]; listed as C00014,25.0 mg/mL
same,solubility,[1],33.3 mg/mL
Cl.Cl.Clc1ccccc1CCN1CCN(CCc2ccccc2Cl)CC1 [Compound 6e],Experimentally determined water solubility of the hydrochloride salt,[1]; listed as C00020,13.5 mg/mL
same,solubility,[1],25 mg/mL
